From ChEMBL document CHEMBL5321260, “Pseudo-Enantiomeric Paraphaeolactones and Their Biosynthetic Derivatives from Paraphaeosphaeria sp. KT4192: A Proposition of a Favorskii Rearrangement for Their Biosynthesis” (J Nat Prod, 2023)
pIC50: −log10 of the molar value. The source made the active and inactive calls. No cut-off for these calls is given here.

Tests used:
COLO 201 = assay: Cytotoxicity against human COLO201 cells assessed as reduction in cell proliferation measured after 24 hrs by WST-1 assay; format: functional, cell-based; details: COLO 201, 24 h
Bipolaris oryzae = assay: Antifungal activity against Bipolaris oryzae incubated for 5 days; format: functional, organism-based; details: time 5.0 day

In the case of Cc1ccc(O)cc1C(=O)[C@H](C)O, the pIC50 (COLO 201) was 3.54 and the Activity (Bipolaris oryzae) was “inactive”.

In the case of CC(=O)[C@H](O)[C@H]1[C@H](C)C=CC(=O)[C@@H]1O, the pIC50 (COLO 201) was less than 3.30 and the Activity (Bipolaris oryzae) was “inactive”.

In the case of C[C@@H]1C=C[C@]2(O)C[C@@]3(O)C(=O)O[C@@H]2[C@@H]13, the pIC50 (COLO 201) was less than 3.30 and the Activity (Bipolaris oryzae) was “inactive”.

In the case of COC(=O)[C@]12[C@@H](C(C)=O)O[C@H](CC(=O)[C@@H]1O)[C@H]2C, the pIC50 (COLO 201) was 3.70 and the Activity (Bipolaris oryzae) was “inactive”.

With C[C@@H]1C=C[C@@]2(O)C[C@]3(O)C(=O)O[C@H]2[C@H]13 the pIC50 (COLO 201) was 3.52 and the Activity (Bipolaris oryzae) was “inactive”.

With C=C1OC(=O)[C@]23[C@@H]1O[C@H](CC(=O)[C@@H]2O)[C@H]3C the pIC50 (COLO 201) was 3.41 and the Activity (Bipolaris oryzae) was “inactive”.

For CC(=O)C(O)c1cc(O)ccc1C (stereo not drawn), the pIC50 (COLO 201) was 3.47 and the Activity (Bipolaris oryzae) was “inactive”.

In the case of CC(=O)[C@@H](O)c1c(C)ccc2c1O[C@]1(O2)[C@@]2(O)C=C[C@@H](C)[C@@H]3[C@H]2OC(=O)[C@@]31O, the pIC50 (COLO 201) was 3.59 and the Activity (Bipolaris oryzae) was “inactive”.

CC(=O)[C@@H](O)c1c(C)ccc2c1O[C@@]1(O2)[C@@]2(O)C=C[C@@H](C)[C@@H]3[C@H]2OC(=O)[C@@]31O was tested, and the pIC50 (COLO 201) was 3.70 and the Activity (Bipolaris oryzae) was “inactive”.
